# Results from patent US20260335456A1, “ANTIBODY-DRUG CONJUGATE HAVING CAMPTOTHECIN-BASED DRUG LINKED TO ANTIBODY HAVING LOW ANTIGEN-BINDING AFFINITY THROUGH LINKER” (PINOTBIO, INC., priority 2022, published 2026).
# Assays:
# FaDu cell line = assay: Western blot of DDX5 and anti-apoptotic proteins in FaDu; assay type: cell-based; settings: 0, 10, 100 nM; for DDX5 degradation ranking: FaDu and A549; for expression of anti-apoptotic proteins: Survivin, cIAP2, Mcl-1, XIAP, 24 hours
# Procedure: 1-1: Confirmation of Suppressive Activity of Expression of Cancer-Related Survival Genes of DDX5, Survivin, Mcl-1, XIAP and cIAP2 Through Western Blot
# 200,000 FaDu cell lines were seeded per well in a 6-well plate and incubated at constant temperature (37 °C, 5% CO2). […] It was incubated at constant temperature (37 °C, 5% CO2) for 24 hours. The well was treated with 100 μL of RIPA buffer dissolved in protease inhibitor cocktail. […] Protein concentration was determined through protein assay.
# Electrophoresis was performed on the gel at 60V.
# 7 sheets of activated filter paper, PVDF membrane, gel and 7 sheets of filter paper were placed in order in the cassettes of the Trans-Blot® Turbo™ Transfer System, and the lid was closed, and after being inserted into the machine, the protocol started.
# The transferred membrane was immersed in blocking buffer and incubated at constant temperature (RT, 1h). Next, it was incubated at 4 °C overnight in primary antibody solution. It was rinsed with TBST buffer for 3 minutes (repeated 3 times). Incubation was performed (RT, 1h) in a secondary antibody solution conjugated with HRP. It was rinsed with TBST buffer for 3 minutes (repeated 3 times).
# After soaking the membrane in the ECL substrate for 3 to 5 minutes, the signal was determined by using the ChemiDoc™ MP Imaging System.
# A549 cell line = assay: Western blot of DDX5 and anti-apoptotic proteins in A549; assay type: cell-based; settings: for DDX5 degradation ranking: FaDu and A549, 0, 10, 100 nM
# ABCG2 = molecular target: T1, ABCG2 (Homo sapiens, UniProt Q9UNQ0); assay: Sensitivity to ABCG2 transporter; assay type: cell-based
# T1 sequence (Q9UNQ0 1-655): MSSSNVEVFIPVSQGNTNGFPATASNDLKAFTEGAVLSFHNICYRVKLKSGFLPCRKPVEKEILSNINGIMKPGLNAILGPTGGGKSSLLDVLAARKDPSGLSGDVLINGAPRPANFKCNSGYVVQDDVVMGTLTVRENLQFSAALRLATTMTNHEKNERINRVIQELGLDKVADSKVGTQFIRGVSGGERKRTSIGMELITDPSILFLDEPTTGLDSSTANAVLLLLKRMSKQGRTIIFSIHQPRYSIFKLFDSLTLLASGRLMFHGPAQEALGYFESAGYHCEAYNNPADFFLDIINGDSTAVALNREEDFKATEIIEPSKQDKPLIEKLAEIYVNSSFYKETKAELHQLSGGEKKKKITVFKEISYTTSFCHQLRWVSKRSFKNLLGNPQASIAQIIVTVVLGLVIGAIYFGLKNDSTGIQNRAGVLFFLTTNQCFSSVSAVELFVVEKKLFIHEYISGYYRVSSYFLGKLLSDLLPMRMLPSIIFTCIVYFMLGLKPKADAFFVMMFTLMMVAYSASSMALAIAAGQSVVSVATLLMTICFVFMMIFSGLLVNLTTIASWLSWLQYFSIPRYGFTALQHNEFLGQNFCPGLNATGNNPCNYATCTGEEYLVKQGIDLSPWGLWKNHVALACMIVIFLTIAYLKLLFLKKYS
# [1] = Lactone to carboxylate form conversion in pH 7.4; assay type: physicochemical; settings: for rate of conversion from lactone to carboxylate form / degraded at 3 µM: pH 7.4, 37 °C; for degraded at 3 µM: PBS with 10% DMSO, read-out: carboxylate form formed; for lactone to carboxylate conversion versus reference compounds: pH 7.4, reference: exatecan, DXd, SN-38, FL118
# Procedure: 3-2. Lactone to Carboxylate Form Conversion in pH 7.4
# Afterwards, it was centrifuged at 4 °C, 2 minutes, and 13,000 RCF conditions, and the supernatant was used as a sample.
# The column used was Cortecs C18 2.7 μm, 4.6×50 mm Column, and analysis was conducted under the following conditions. 1) 20 minutes: 5% B, 2) sample injection, 3) 2 minutes: 5% B, 4) 10 minutes: 5% B→50% B, 5) 1 minute: 50% B.
# In order to measure changes over time, the sample chamber was maintained at 37 °C, and the sample was set to be injected every measurement time. The measurement times were 0, 20, 40, 60, 90, 120, 180, 240, 300, 360, 480, 600 and 720 minutes.
# The content was calculated from the peak area of each lactone and carboxylate. Since the absorption coefficients of lactone and carboxylate are different, the lactone area was obtained by multiplying the carboxylate area by the equation below.
# A549 = assay: Cell viability assay in A549; assay type: cell-based; settings: for efficacy / IC50 in ABCG2-overexpressing cells: A549, FIG. 9
# Procedure: (§1) After 24 hours, 100 μL of the drug at 9 concentrations (serial dilution of 1/5 from 1,000 nM) was treated with the cells. […] In this case, a control group that was not treated with the drug (drug concentration 0) was also prepared. It was cultured at constant temperature (37 °C, 5% CO2) for 3 or 6 days. 100 μL of CellTiter-Glo reagent (using CellTiter-Glo® Luminescent Cell Viability Assay kit (Promega, G7571)) was added to each well and pipetted. After incubation at constant temperature (RT) for 10 minutes, luminescence was measured.
# DDX5 protein = DDX5 protein (Homo sapiens, UniProt P17844); assay: DDX5 degradation by camptothecin drugs; assay type: cell-based; settings: FIGS. 7 to 10
# [2] = system: HCT-8 and FaDu cell lines; assay: Western blot of anti-apoptotic proteins in HCT-8 and FaDu; assay type: cell-based; settings: FIG. 6
# Description: GAPDH is an enzyme involved in glycolysis, which is an essential metabolic process in cells.
# in vitro cytotoxicity = assay: In vitro cytotoxicity of FL118, exatecan versus SN-38; assay type: cell-based; settings: FIG. 5
# DNA topoisomerase I = DNA topoisomerase I (Homo sapiens, UniProt P11387); settings: versus SN-38 and topotecan; cited from earlier work
# various cancer cells = settings: resistance due to expression of P-glycoprotein; cited from earlier work
# rats and beagle dogs = assay: FL118 GLP-toxicity tests; assay type: in vivo; settings: GLP-toxicity tests in rats and beagle dogs
# Description: (§2) Meanwhile, camptothecin-based anticancer drugs show excellent anticancer responses initially when used in patients, but strong resistance to these drugs appears through Epigenetic Silencing of the Top1 gene and Top2 Dependence of cancer cells.
# [3] = system: cancer cell line Xenograft models; assay: FL118 xenograft and human tumor animal model efficacy; assay type: in vivo
# Description: Genetic manipulation of DDX5 in PDAC cells affects tumor growth.
# as §2
# [4] = FL118 pharmacokinetics and tumor accumulation; assay type: in vivo
# Description: For example, when applying ADC, maximum selectivity between tumor tissue and normal tissue is ensured.
# [5] = system: cancer cell line Xenograft models; settings: cited from earlier work
# PDAC cells with DDX5 KO = settings: cited from earlier work
# FaDu = assay: Cell viability assay in FaDu; assay type: cell-based
# Procedure: as §1
# MDA-MB-468 tumor model = assay: In vivo efficacy in MDA-MB-468 model (EGFR ADCs); set-up: species or system mouse
# Procedure: Cells growing in exponential growth phase were harvested and counted for tumor inoculation.
# MDA-MB-468 cells (1×10^7) in 0.2 mL of DPBS with Matrigel were inoculated subcutaneously into the right anterior flank of each mouse. When the average tumor volume reached approximately 215 mm^3, animals were randomly grouped, and then, treatment for drug efficacy studies was initiated.
# During routine monitoring, normal behavior such as mobility, food and water consumption (observation only), body weight changes (weighed twice weekly), eye/hair mailing, tumor growth and effectiveness of treatment were checked in animals every day. Deaths and observed clinical signs were recorded based on the number of animals in each subset.
# The primary endpoint was determined as a time point when tumor growth could be delayed or the mice could be cured. The two-dimensional size of the tumor was measured twice weekly using a caliper, and the volume was expressed in mm^3 using the equation (V=0.5 a×b^2, where a and b are the long and short diameters of the tumor, respectively).
# Tumor growth inhibition (TGI) was calculated for each group.
# TGI (%)=[1−(Ti/T0)/(Vi/V0)]×100 […]
# DDX5 protein, sequence (P17844 whole entry): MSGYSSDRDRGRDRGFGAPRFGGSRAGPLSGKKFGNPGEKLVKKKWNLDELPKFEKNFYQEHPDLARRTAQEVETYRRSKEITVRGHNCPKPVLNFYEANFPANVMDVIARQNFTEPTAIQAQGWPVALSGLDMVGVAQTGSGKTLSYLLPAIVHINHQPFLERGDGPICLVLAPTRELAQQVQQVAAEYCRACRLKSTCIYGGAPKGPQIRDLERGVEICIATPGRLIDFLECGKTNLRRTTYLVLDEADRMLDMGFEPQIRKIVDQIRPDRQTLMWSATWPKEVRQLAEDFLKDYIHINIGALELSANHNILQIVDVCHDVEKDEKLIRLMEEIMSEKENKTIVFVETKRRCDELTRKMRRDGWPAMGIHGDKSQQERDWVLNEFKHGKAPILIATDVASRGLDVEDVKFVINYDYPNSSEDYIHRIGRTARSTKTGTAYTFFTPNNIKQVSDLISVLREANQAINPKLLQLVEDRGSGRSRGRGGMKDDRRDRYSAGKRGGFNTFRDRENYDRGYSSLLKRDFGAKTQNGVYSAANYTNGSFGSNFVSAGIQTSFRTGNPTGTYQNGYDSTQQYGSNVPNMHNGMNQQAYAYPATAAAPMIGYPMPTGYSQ
# DNA topoisomerase I, sequence (P11387 whole entry): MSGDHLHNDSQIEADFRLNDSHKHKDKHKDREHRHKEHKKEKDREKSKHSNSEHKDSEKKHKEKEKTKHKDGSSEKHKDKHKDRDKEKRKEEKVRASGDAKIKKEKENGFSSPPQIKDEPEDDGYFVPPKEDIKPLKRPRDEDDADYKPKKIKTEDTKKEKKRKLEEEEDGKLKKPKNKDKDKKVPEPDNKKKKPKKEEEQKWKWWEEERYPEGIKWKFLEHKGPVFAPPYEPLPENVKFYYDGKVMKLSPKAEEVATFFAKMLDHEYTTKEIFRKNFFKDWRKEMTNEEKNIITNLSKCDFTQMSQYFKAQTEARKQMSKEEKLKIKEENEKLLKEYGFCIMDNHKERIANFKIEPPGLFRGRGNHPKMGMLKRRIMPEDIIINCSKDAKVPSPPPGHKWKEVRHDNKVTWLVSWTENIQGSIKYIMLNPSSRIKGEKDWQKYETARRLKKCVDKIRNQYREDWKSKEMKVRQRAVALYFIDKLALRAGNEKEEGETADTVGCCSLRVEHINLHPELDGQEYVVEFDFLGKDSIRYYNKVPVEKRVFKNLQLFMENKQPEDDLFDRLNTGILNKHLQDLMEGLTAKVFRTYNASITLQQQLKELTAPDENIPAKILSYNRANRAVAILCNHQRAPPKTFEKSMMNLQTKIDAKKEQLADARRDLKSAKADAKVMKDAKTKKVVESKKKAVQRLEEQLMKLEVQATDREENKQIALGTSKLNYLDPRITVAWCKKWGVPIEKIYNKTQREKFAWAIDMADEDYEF
compound,measurement,setting,value
"CC[C@@]1(O)C(=O)OCc2c1cc1n(c2=O)Cc2c-1nc1cc3c(c4c1c2[C@@H](N)CC4)OCO3 (single isomer, unassigned) [PBX-7011]",DDX5 degradation ranking,FaDu cell line,"followed by 7011, 7016 and 7014"
same,expression of anti-apoptotic proteins,FaDu cell line,"decrease in the expression of Survivin, cIAP2, Mcl-1 and XIAP as the concentration increased"
same,DDX5 degradation ranking,A549 cell line,"followed by 7011, 7016 and 7014"
"CC[C@@]1(O)C(=O)OCc2c1cc1n(c2=O)Cc2c-1nc1cc(F)c(C)c3c1c2[C@@H](NC(=O)CO)CC3 [Dxd, reference compound]",sensitivity to ABCG2,ABCG2,strongly influenced by ABCG2
same,rate of conversion from lactone to carboxylate form,[1],0.6 % per minute
same,degraded at 3 µM,[1],76.5%
same,efficacy / IC50 in ABCG2-overexpressing cells,A549,increased IC50 values
same,DDX5 degradation mechanism of action,DDX5 protein,exerts a mechanism of action (MoA) to degrade DDX5 protein
CC[C@@]1(O)C(=O)OCc2c1cc1n(c2=O)Cc2c-1nc1cc(F)c(C)c3c1c2[C@@H](N)CC3 [Exatecan],sensitivity to ABCG2,ABCG2,almost unaffected by ABCG2
same,downregulating tumor proteins versus SN-38,[2],better efficacy in downregulating tumor proteins compared to the SN-38 drug
same,in vitro cytotoxicity versus SN-38,in vitro cytotoxicity,better efficacy against in vitro cytotoxicity compared to SN-38
same,DDX5 degradation mechanism of action,DDX5 protein,exerts a mechanism of action (MoA) to degrade DDX5 protein
same,type I topoisomerase inhibitory activity,DNA topoisomerase I,stronger type I topoisomerase inhibitory activity than SN-38
same,effect on cancer cells resistant to SN-38 and other drugs,various cancer cells,effective against cancer cells that are resistant to SN-38
"CC[C@@]1(O)C(=O)OCc2c1cc1n(c2=O)Cc2cc3cc4c(cc3nc2-1)OCO4 [FL118, 10, 11-methylenedioxy-camptothecin]",safety,rats and beagle dogs,excellent safety
same,"xenograft efficacy, Top1 not expressed",[3]; Epigenetic Silencing or Knock-out of Top1,strong efficacy
same,anticancer efficacy after SN-38 resistance,[3]; after inducing SN-38 resistance in tumor xenograft,strong anticancer efficacy
same,tumor regression efficacy,"[3]; same amount as SN-38, colon, head and neck, pancreatic cancer",stronger tumor regression efficacy than SN-38
same,xenograft efficacy,[3]; versus SN-38 in various cancer cell line Xenograft models,superior efficacy compared to SN-38
same,sensitivity to ABCG2,ABCG2,not affected by the ABCG2 Transporter
same,accumulation in cancer tissue,[4]; immediately after administration,accumulates quickly in cancer tissue
same,blood clearance,[4]; systemic administration alone,rapidly metabolized and excreted from the blood
same,DDX5 degradation ranking,FaDu cell line,superior to other substances
same,DDX5 degradation ranking,A549 cell line,superior to other substances
same,downregulating tumor proteins versus SN-38,[2],better efficacy in downregulating tumor proteins compared to the SN-38 drug
same,in vitro cytotoxicity versus SN-38,in vitro cytotoxicity,better efficacy against in vitro cytotoxicity compared to SN-38
same,DDX5 degradation mechanism of action,DDX5 protein,directly binds to the tumor protein DDX5
same,"efficacy in eliminating human PDAC and CRC tumors, high DDX5 expression",[5]; high DDX5 expression,high efficacy
same,"efficacy in PDAC and CRC tumors, low DDX5 expression",[5]; low DDX5 expression,less effective
same,sensitivity of DDX5 KO cells,PDAC cells with DDX5 KO,resistant
CC[C@@]1(O)C(=O)OCc2c1cc1n(c2=O)Cc2c-1nc1cc3c(c4c1c2[C@@H](NC(=O)CO)CC4)OCO3 [PBX-7014],rate of conversion from lactone to carboxylate form,[1],0.8 % per minute
same,degraded at 3 µM,[1],> 86%
same,lactone to carboxylate conversion versus reference compounds,[1],faster and at a higher rate than other reference compounds
same,DDX5 degradation ranking,FaDu cell line,"followed by 7011, 7016 and 7014"
same,expression of anti-apoptotic proteins,FaDu cell line,"decrease in the expression of Survivin, cIAP2, Mcl-1 and XIAP as the concentration increased"
same,dual mechanism (topoisomerase I inhibition and DDX5 degradation),A549 cell line,dual MoA that acts as a degrader of DDX5 (p68)
same,DDX5 degradation ranking,A549 cell line,"followed by 7011, 7016 and 7014"
CC[C@@]1(O)C(=O)OCc2c1cc1n(c2=O)Cc2c-1nc1cc3c(c4c1c2[C@@H](NC(=O)[C@@H](O)C1CC1)CC4)OCO3 [PBX-7024],sensitivity to ABCG2,ABCG2,not affected by ABCG2
same,lactone to carboxylate conversion versus reference compounds,[1],faster and at a higher rate than other reference compounds
same,IC50 compared to Dxd,"FaDu; 3 days, FIG. 9",IC50 of an equal or higher level compared to Dxd
same,apoptosis effect,"FaDu; does not express ABCG2, 3 days",strong apoptosis effect
same,efficacy / IC50 in ABCG2-overexpressing cells,A549,still maintained strong efficacy
same,apoptosis effect,"A549; A549, overexpresses ABCG2, 3 days",strong apoptosis effect
same,IC50 compared to Dxd,"A549; FaDu and A549, 3 days, FIG. 9",IC50 of an equal or higher level compared to Dxd
Nimotuzumab-CL2A-FL118: nimotuzumab ADC with CL2A-FL118 (Example 4),efficacy,"MDA-MB-468 tumor model; 1 mpk, 5 mpk and 10 mpk, versus cetuximab-based ADC",better efficacy
same,in vivo efficacy versus Cetuximab-CL2A-FL118,MDA-MB-468 tumor model; FIG. 22,better efficacy compared to Cetuximab-CL2A-FL118
